# Results published in patent publication US9873709B2 (priority 2013, dated 2018).
# System: JAK1-dependent STAT6 phosphorylation downstream of IL-13 stimulation in TF-1 human erythroleukemia cells
# Assay: cells
# Settings: TF-1, read-out: IL-13-pSTAT6 IC50
row,SMILES,IC50 [nM]
1,"O=C(N[C@H]1CCCNC1)c1ccc(Nc2nc3c(N4CCC(O)(c5ccc(Cl)cc5)CC4)cccn3n2)cc1 [Example 1-198, 4-[[8-[4-(4-chlorophenyl)-4-hydroxy-1-piperidyl]-[1,2,4]triazolo[1,5-a]pyridin-2-yl]amino]-N-[(3S)-3-piperidyl]benzamide]",68.5
2,"CN1CCC(NC(=O)c2ccc(Nc3nc4c(N5CCC(O)(c6ccc(Cl)cc6)CC5)cccn4n3)cc2)C1 (centres unmarked) [Example 1-62, 4-[[8-[4-(4-chlorophenyl)-4-hydroxy-1-piperidyl]-[1,2,4]triazolo[1,5-a]pyridin-2-yl]amino]-N-(1-methylpyrrolidin-3-yl)benzamide]",22.8
3,"O=C(NCC1CCCNC1)c1ccc(Nc2nc3c(C4=CCN(C(=O)CCC(F)(F)F)CC4)cccn3n2)cc1 (centres unmarked) [Example 2-192, N-(3-piperidylmethyl)-4-[[8-[1-(4,4,4-trifluorobutanoyl)-3,6-dihydro-2H-pyridin-4-yl]-[1,2,4]triazolo[1,5-a]pyridin-2-yl]amino]benzamide]",213
4,"CN(Cc1ccccc1-c1cccnc1)C(=O)c1ccc(Nc2nc3c(C4=CCN(C(=O)CCC(F)(F)F)CC4)cccn3n2)cc1 [Example 2-104, N-methyl-N-[[2-(3-pyridyl)phenyl]methyl]-4-[[8-[1-(4,4,4-trifluorobutanoyl)-3,6-dihydro-2H-pyridin-4-yl]-[1,2,4]triazolo[1,5-a]pyridin-2-yl]amino]benzamide]",59.7
5,"Cc1ccc(CC2CCN(C(=O)c3ccc(Nc4nc5c(C6=CCN(C(=O)CCC(F)(F)F)CC6)cccn5n4)cc3)C2)nc1 (centres unmarked) [Example 2-218, 4,4,4-trifluoro-1-[4-[2-[4-[3-[(5-methyl-2-pyridyl)methyl]pyrrolidine-1-carbonyl]anilino]-[1,2,4]triazolo[1,5-a]pyridin-8-yl]-3,6-dihydro-2H-pyridin-1-yl]butan-1-one]",15.4
6,"CCOC(=O)N1CC=C(c2cccn3nc(Nc4ccc(C(=O)N5CCN(C)CC(CO)C5)cc4)nc23)CC1 (centres unmarked) [Example 2-20, ethyl 4-[2-[4-[6-(hydroxymethyl)-4-methyl-1,4-diazepane-1-carbonyl]anilino]-[1,2,4]triazolo[1,5-a]pyridin-8-yl]-3,6-dihydro-2H-pyridine-1-carboxylate]",256
7,"CCOC(=O)N1CC=C(c2cccn3nc(Nc4ccc(C(=O)NCC5CCCNC5)cc4)nc23)CC1 (centres unmarked) [Example 2-427, ethyl 4-[2-[4-(3-piperidylmethylcarbamoyl)anilino]-[1,2,4]triazolo[1,5-a]pyridin-8-yl]-3,6-dihydro-2H-pyridine-1-carboxylate]",215
8,"CC(C)COC(=O)N1CC=C(c2cccn3nc(Nc4ccc(C(=O)N(C)C5CCN(C)CC5)cc4)nc23)CC1 [Example 2-345, isobutyl 4-[2-[4-[methyl-(1-methyl-4-piperidyl)carbamoyl]anilino]-[1,2,4]triazolo[1,5-a]pyridin-8-yl]-3,6-dihydro-2H-pyridine-1-carboxylate]",23.7
9,"CCOC(=O)N1CC=C(c2cccn3nc(Nc4ccc(C(=O)N5CC(C(=O)N(C)C)C5)cc4)nc23)CC1 [Example 2-115, ethyl 4-[2-[4-[3-(dimethylcarbamoyl)azetidine-1-carbonyl]anilino]-[1,2,4]triazolo[1,5-a]pyridin-8-yl]-3,6-dihydro-2H-pyridine-1-carboxylate]",19
10,"O=C(CCC(F)(F)F)N1CC=C(c2cccn3nc(Nc4ccc(C(=O)N5CCC6CNCC65)cc4)nc23)CC1 (centres unmarked) [Example 2-386, 1-[4-[2-[4-(3,3a,4,5,6,6a-hexahydro-2H-pyrrolo[2,3-c]pyrrole-1-carbonyl)anilino]-[1,2,4]triazolo[1,5-a]pyridin-8-yl]-3,6-dihydro-2H-pyridin-1-yl]-4,4,4-trifluoro-butan-1-one]",155
11,"CN1CCN(C(=O)c2ccc(Nc3nc4c(C5=CCN(C(=O)CCC(F)(F)F)CC5)cccn4n3)cc2)CC1 [Example 2-98, 4,4,4-trifluoro-1-[4-[2-[4-(4-methylpiperazine-1-carbonyl)anilino]-[1,2,4]triazolo[1,5-a]pyridin-8-yl]-3,6-dihydro-2H-pyridin-1-yl]butan-1-one]",11.5
12,"CCOC(=O)N1CC=C(c2cccn3nc(Nc4ccc(C(=O)N5CCCC5c5ccncc5)cc4)nc23)CC1 (centres unmarked) [Example 2-15, ethyl 4-[2-[4-[2-(4-pyridyl)pyrrolidine-1-carbonyl]anilino]-[1,2,4]triazolo[1,5-a]pyridin-8-yl]-3,6-dihydro-2H-pyridine-1-carboxylate]",17.1
13,"O=C(N[C@H]1CN2CCC1CC2)c1ccc(Nc2nc3c(C4=CCN(C(=O)CCC(F)(F)F)CC4)cccn3n2)cc1 [Example 2-469, N-[(3R)-quinuclidin-3-yl]-4-[[8-[1-(4,4,4-trifluorobutanoyl)-3,6-dihydro-2H-pyridin-4-yl]-[1,2,4]triazolo[1,5-a]pyridin-2-yl]amino]benzamide]",83.8
14,"Cc1ccc(C2CCCN(C(=O)c3ccc(Nc4nc5c(C6=CCN(C(=O)CCC(F)(F)F)CC6)cccn5n4)cc3)C2)nc1 (centres unmarked) [Example 2-50, 4,4,4-tri fluoro-1-[4-[2-[4-[3-(5-methyl-2-pyridyl)piperidine-1-carbonyl]anilino]-[1,2,4]triazolo[1,5-a]pyridin-8-yl]-3,6-dihydro-2H-pyridin-1-yl]butan-1-one]",65.1

# Further compounds by falling IC50, results first:
row,IC50 [nM],SMILES
1,637,"O=C(NCC1COC2(CCNCC2)C1)c1ccc(Nc2nc3c(N4CCC(O)(c5ccc(Cl)cc5)CC4)cccn3n2)cc1 (centres unmarked) [Example 1-220, 4-[[8-[4-(4-chlorophenyl)-4-hydroxy-1-piperidyl]-[1,2,4]triazolo[1,5-a]pyridin-2-yl]amino]-N-(1-oxa-8-azaspiro[4.5]decan-3-ylmethyl)benzamide]"
2,373,"CN1CCC(N(C)C(=O)c2ccc(Nc3nc4c(C5=CCN(C(=O)C6CCOCC6)CC5)cccn4n3)cc2)CC1 [Example 2-105, N-methyl-N-(1-methyl-4-piperidyl)-4-[[8-[1-(tetrahydropyran-4-carbonyl)-3,6-dihydro-2H-pyridin-4-yl]-[1,2,4]triazolo[1,5-a]pyridin-2-yl]amino]benzamide]"
3,360,"CCOC(=O)N1CC=C(c2cccn3nc(Nc4ccc(C(=O)N5CCC6(CCNC6)C5)cc4)nc23)CC1 (centres unmarked) [Example 2-78, ethyl 4-[2-[4-(2,7-diazaspiro[4.4]nonane-2-carbonyl)anilino]-[1,2,4]triazolo[1,5-a]pyridin-8-yl]-3,6-dihydro-2H-pyridine-1-carboxylate]"
4,352,"O=C(CCC(F)(F)F)N1CC=C(c2cccn3nc(Nc4ccc(C(=O)N5CCCCC56CCCNC6)cc4)nc23)CC1 (centres unmarked) [Example 2-34, 1-[4-[2-[4-(1,8-diazaspiro[5.5]undecane-1-carbonyl)anilino]-[1,2,4]triazolo[1,5-a]pyridin-8-yl]-3,6-dihydro-2H-pyridin-1-yl]-4,4,4-trifluoro-butan-1-one]"
5,48.1,"CN(C(=O)c1ccc(Nc2nc3c(C4=CCN(C(=O)CCC(F)(F)F)CC4)cccn3n2)cc1)C1CCN(Cc2ccccc2)C1 (centres unmarked) [Example 2-473, N-(1-benzylpyrrolidin-3-yl)-N-methyl-4-[[8-[1-(4,4,4-trifluorobutanoyl)-3,6-dihydro-2H-pyridin-4-yl]-[1,2,4]triazolo[1,5-a]pyridin-2-yl]amino]benzamide]"
6,38.8,"O=C(CCC(F)(F)F)N1CC=C(c2cccn3nc(Nc4ccc(C(=O)N(CCO)Cc5cccnc5)cc4)nc23)CC1 [Example 2-279, N-(2-hydroxyethyl)-N-(3-pyridylmethyl)-4-[[8-[1-(4,4,4-trifluorobutanoyl)-3,6-dihydro-2H-pyridin-4-yl]-[1,2,4]triazolo[1,5-a]pyridin-2-yl]amino]benzamide]"
7,29.6,"CC1CC(C(=O)N2CC=C(c3cccn4nc(Nc5ccc(C(=O)N(C)C6CCN(C)CC6)cc5)nc34)CC2)C1 (centres unmarked) [Example 2-263, N-methyl-4-[[8-[1-(3-methylcyclobutanecarbonyl)-3,6-dihydro-2H-pyridin-4-yl]-[1,2,4]triazolo[1,5-a]pyridin-2-yl]amino]-N-(1-methyl-4-piperidyl)benzamide]"
8,26.7,"CN1CCN(C(=O)C2CCN(C(=O)c3ccc(Nc4nc5c(N6CCC(O)(c7ccc(Cl)cc7)CC6)cccn5n4)cc3)CC2)CC1 [Example 1-113, [4-[[8-[4-(4-chlorophenyl)-4-hydroxy-1-piperidyl]-[1,2,4]triazolo[1,5-a]pyridin-2-yl]amino]phenyl]-[4-(4-methylpiperazine-1-carbonyl)-1-piperidyl]methanone]"
9,10.9,"CN1CCC2(CC1)CN(C(=O)c1ccc(Nc3nc4c(N5CCC(O)(c6ccc(Cl)cc6)CC5)cccn4n3)cc1)C2 [Example 1-81, [4-[[8-[4-(4-chlorophenyl)-4-hydroxy-1-piperidyl]-[1,2,4]triazolo[1,5-a]pyridin-2-yl]amino]phenyl]-(7-methyl-2,7-diazaspiro[3.5]nonan-2-yl)methanone]"
10,8.3,"O=C(CCC(F)(F)F)N1CC=C(c2cccn3nc(Nc4ccc(C(=O)N5CCC(c6ccccn6)CC5)cc4)nc23)CC1 [Example 2-156, 4,4,4-trifluoro-1-[4-[2-[4-[4-(2-pyridyl)piperidine-1-carbonyl]anilino]-[1,2,4]triazolo[1,5-a]pyridin-8-yl]-3,6-dihydro-2H-pyridin-1-yl]butan-1-one]"
11,7.4,"Cc1cccc(CCNC(=O)c2ccc(Nc3nc4c(C5=CCN(C(=O)CCC(F)(F)F)CC5)cccn4n3)cc2)n1 [Example 2-216, N-[2-(6-methyl-2-pyridyl)ethyl]-4-[[8-[1-(4,4,4-trifluorobutanoyl)-3,6-dihydro-2H-pyridin-4-yl]-[1,2,4]triazolo[1,5-a]pyridin-2-yl]amino]benzamide]"
12,4.2,"CN1C[C@@H]2CCN(C(=O)c3ccc(Nc4nc5c(C6=CCN(C(=O)CCC(F)(F)F)CC6)cccn5n4)cc3)[C@@H]2C1 [Example 2-326, 1-[4-[2-[4-[(3aS,6aS)-5-methyl-2,3,3a,4,6,6a-hexahydropyrrolo[2,3-c]pyrrole-1-carbonyl]anilino]-[1,2,4]triazolo[1,5-a]pyridin-8-yl]-3,6-dihydro-2H-pyridin-1-yl]-4,4,4-trifluoro-butan-1-one]"
